Data as given in patent US9969744B2, “Compounds for use in cognition improvement” (FUNDACIÓN PARA LA INVESTIGACIÓN MÉDICA APLICADA, priority 2014, dated 2018).

Tests used:
[1] = tested on: carboxyl terminal fragment AβPP (C99); experiment: AD-related markers in Tg2576 neurons: APP processing (C99); format: cell-based, mouse; settings: Tg2576 primary neurons, compound concentration 50 nM
Method: The effects of the compounds on amyloid pathology were analysed in primary cultures after 21 days in-vitro (DIV) of neurons derived from the hippocampus and cortex of Tg2576 mouse embryos. Tg2576 mice express the human 695-aa isoform of APP (hAPP) containing the Swedish double mutation, which favours A3 production. Neurons were treated for two days and collected at day 3, 24 h after the last treatment. First it was analysed the effect of the compounds on hAPP processing by the amyloidogenic pathway by measuring the carboxyl terminal fragment AβPP (C99), which is the precursor of Aβ42. In this case the reported EC50, Table 2 (below), means a 50% decrease in C99 levels over basal (vehicle, no treatment).
To analyze APP-derived fragments and p-Tau levels in primary neuronal cultures, cells were collected in a buffer containing SDS (2%), Tris-HCl (10 mM, pH 7.4), protease inhibitors (1 mM phenylmethylsulfonyl fluoride (PMSF) and Complete Protease Inhibitor Cocktail: Roche Diagnostics) and phosphatase inhibitors (0.1 mM Na3VO4 and 1 mM NaF). The homogenates were sonicated for 2 min and centrifuged at 100,000×g for 1 h. Aliquots of the supernatant were frozen at […] and their protein concentrations determined by the Bradford method using the Bio-Rad protein assay (Bio-Rad, Hercules, Calif., USA). […]

[2] = tested on: acetylated histone 3 at Lys9 (AcH3K9); experiment: HDAC activity using SHSY-5Y cell line (Western blot, histone 3 acetylation); format: cell-based, human; settings: SHSY-5Y cells, 24 hours
Method: HDAC inhibition leads to the corresponding functional response, increase in AcH3 level. Therefore, the cellular assay to conclude HDAC activity was assessed by Western blot analysis using specific antibodies against acetylated histone 3 at Lys9 (AcH3K9). Cell cultures were treated at 100 nM, 500 nM, 1 μM and/or 5 μM with compounds of the invention or known PDE inhibitors during 24 hours and, Table 1 (below) describes the functional activity: histone 3 acetylation level (AcH3) vs basal (no treatment).
A human neuroblastoma cell line (SHSY-5Y) was used. Cell line was obtained from ATCC (CRL-2266) and cultured in 35 mm plates (Becton Dickinson, NJ).
The cells were grown to 90% confluence at 37° C. in an atmosphere of 5% CO2 and in Dulbecco's modified Eagle's medium supplemented with Glutamax (Gibco, Invitrogen, CA), 100 units/ml penicillin/streptomycin, 1×MEM nonessential amino acids and 10% fetal bovine serum (Gibco, Invitrogen, CA).
Cells were collected and sonicated in a buffer containing a cold lysis buffer with protease inhibitors (0.2 M NaCl, 0.1 M HEPES (4-(2-hydroxyethyl)-1-piperazineethanesulfonic acid), 10% glycerol, 200 mM NaF, 2 mM Na4P2O7, 5 mM EDTA (ethylenediaminetetraacetic acid), 1 mM EGTA (ethylene glycol tetraacetic acid), 2 mM DTT (dithiothreitol), 0.5 mM PMSF (phenylmethylsulfonyl fluoride), 1 mM Na3VO4 and Complete Protease Inhibitor Cocktail, Roche Diagnostics), centrifuged at 14,000×g 4° C. for 20 min and the supernatant was aliquoted and stored at −80° C. Total protein concentrations were determined using the BioRad Bradford protein assay (BioRad Laboratories).
Protein samples were mixed with Laemmli sample buffer, resolved onto Sodium Dodecyl Sulfate (SDS)-polyacrylamide gels and transferred to nitrocellulose membrane. The membranes were blocked with 5% milk, 0.05% Tween-20 in PBS (Phosphate-Buffered Saline) or TBS (Tris-Buffered Saline) followed by overnight incubation with the following primary antibodies: rabbit polyclonal anti-acetylated Histone 3 (acetyl K9) (Cell Signalling Technology), rabbit polyclonal anti-total Histone 3 (Millipore), in the corresponding buffer. All the antibodies were used at 1:1000 dilution except the mouse monoclonal anti-β-actin which was used at 1:50.000. Following two washes in TBS/Tween20 and one wash in TBS alone, immunolabeled protein bands were detected by using HRP-conjugated anti-rabbit or anti-mouse antibody (Santa Cruz Biotechnology; dilution 1:5.000) following an enhanced chemiluminescence system (ECL, GE Healthcare Bioscience, Buckinghamshire, UK), and autoradiographic exposure to HyperfilmtECL (GE Healthcare Bioscience). Quantity One™ software v.4.6.3 (Bio-Rad) was used for quantification.

CCCc1nn(C)c2c(=O)[nH]c(-c3cc(Cc4ccc(C(=O)Nc5ccccc5N)cc4)ccc3OCC)nc12 [Example 1-11, N-(2-aminophenyl)-4-[[4-ethoxy-3-(1-methyl-7-oxo-3-propyl-6H-pyrazolo[4,3-d]pyrimidin-5-yl)phenyl]methyl]benzamide]
decrease in C99 levels over basal [1]: ++ (basal x0.2≤(++)<basal x0.4 (reduction between 20% and 40%)) | AcH3: increment in Histone 3 acetylation level vs basal ([2]; compound concentration 100 nM): ++ (basal x1.4≤(++)<basal x2) | AcH3: increment in Histone 3 acetylation level vs basal ([2]; compound concentration 500 nM): ++ (basal x1.4≤(++)<basal x2) | AcH3: increment in Histone 3 acetylation level vs basal ([2]; compound concentration 1 μM): +++ (basal x2≤(+++)<basal x3)
